The values below come from BindingDB's records for patent US10696638 (INDUSTRIAL TECHNOLOGY RESEARCH INSTITUTE, 2020).

Bounds are passed on as bounds.

Sequence of Rho-associated protein kinase 2 (O75116 whole entry): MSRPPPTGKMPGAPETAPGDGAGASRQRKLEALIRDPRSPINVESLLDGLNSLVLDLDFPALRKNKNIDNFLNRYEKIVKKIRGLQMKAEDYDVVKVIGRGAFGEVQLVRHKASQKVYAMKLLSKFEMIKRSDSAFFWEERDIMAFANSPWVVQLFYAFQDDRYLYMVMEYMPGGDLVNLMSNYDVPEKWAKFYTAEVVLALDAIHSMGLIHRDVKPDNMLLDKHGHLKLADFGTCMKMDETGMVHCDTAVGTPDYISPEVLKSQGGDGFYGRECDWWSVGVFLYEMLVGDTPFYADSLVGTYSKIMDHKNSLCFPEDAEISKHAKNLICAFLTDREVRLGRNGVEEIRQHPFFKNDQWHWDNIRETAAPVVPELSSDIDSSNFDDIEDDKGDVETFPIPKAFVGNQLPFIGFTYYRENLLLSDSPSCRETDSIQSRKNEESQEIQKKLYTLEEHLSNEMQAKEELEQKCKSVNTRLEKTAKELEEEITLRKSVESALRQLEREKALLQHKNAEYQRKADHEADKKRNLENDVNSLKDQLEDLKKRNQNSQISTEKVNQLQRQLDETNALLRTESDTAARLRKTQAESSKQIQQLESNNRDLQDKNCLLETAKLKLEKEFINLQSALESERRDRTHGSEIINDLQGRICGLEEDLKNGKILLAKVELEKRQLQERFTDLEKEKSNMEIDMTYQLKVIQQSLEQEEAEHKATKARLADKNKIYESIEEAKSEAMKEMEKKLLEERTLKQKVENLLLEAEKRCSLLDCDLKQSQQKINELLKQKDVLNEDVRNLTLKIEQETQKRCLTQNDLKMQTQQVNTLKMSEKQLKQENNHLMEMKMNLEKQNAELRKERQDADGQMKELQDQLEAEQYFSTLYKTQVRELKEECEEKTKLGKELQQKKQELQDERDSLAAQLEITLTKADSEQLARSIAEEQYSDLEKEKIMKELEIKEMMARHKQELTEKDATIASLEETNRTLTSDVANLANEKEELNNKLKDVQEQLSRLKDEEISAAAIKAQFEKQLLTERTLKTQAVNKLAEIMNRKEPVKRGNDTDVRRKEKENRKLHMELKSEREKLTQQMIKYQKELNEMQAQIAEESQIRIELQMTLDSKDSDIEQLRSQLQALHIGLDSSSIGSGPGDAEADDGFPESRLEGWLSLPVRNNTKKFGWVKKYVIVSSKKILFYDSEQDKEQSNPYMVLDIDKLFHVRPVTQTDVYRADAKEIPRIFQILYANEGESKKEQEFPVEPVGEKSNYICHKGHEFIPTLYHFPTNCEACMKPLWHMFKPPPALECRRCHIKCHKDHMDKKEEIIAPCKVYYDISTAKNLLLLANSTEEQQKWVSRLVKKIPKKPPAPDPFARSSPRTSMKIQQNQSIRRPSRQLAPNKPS

This assay concerns the target Rho-associated protein kinase 2 (Homo sapiens, UniProt O75116). As to the kind of experiment: ELISA Assay. As for the experimental part:
ROCK Substrate Coated Plate (Part No 241601): One strip well 96-well plate pre-coated with recombinant MYPT1.Buffer: 25 mM Tris, pH 7.5, 10 mM MgCl2, 5 mM Glycerol-2-Phosphate, 0.1 mM Na3VO4; 1% DMSO; 2.5 mM DTT; (Enzyme: ROCK active-II) (Cell Biolabs, Catalog #STA-406, Part No. 241505) 0.1 ng/μl.ATP Solution (Part No. 241604): 100 mM ATP. Final concentration of ATP in reaction mixture: 250 μM.Anti-phospho-MYPT1 (Thr696) (Part No. 241603).Secondary Antibody, HRP Conjugate (Part No. 231003).Biotinylated substrate, diluted to 0.25 μM with buffer described above (without ATP).Steps:1. Purified kinase or cell lysate sample can be used directly in the kinase assay or further diluted with 1× Kinase Buffer. Each sample should be assayed in duplicate.2. Add 90 μL of the diluted active ROCK-II positive control or unknown ROCK samples to the wells of the substrate plate.3. Initiate the kinase reaction by adding 10 μL of the 10× Kinase Reaction Buffer containing DTT and ATP. Mix well.4. Cover with a plate cover and incubate the wells at 30° C. for 30-60 minutes with gentle agitation.5. Stop kinase reaction by flicking out the content or by adding 50 μL of 0.5M EDTA, pH 8.0, to each well.6. Remove the plate cover and empty wells. Wash microwell strips 3 times with 250 μL 1× Wash Buffer per well with thorough aspiration between each wash. After the last wash, empty wells and tap microwell strips on absorbent pad or paper towel to remove excess 1× Wash Buffer.7. Add 100 μL of the diluted anti-phospho-MYPT1 (Thr696) antibody to each well.8. Cover with the plate cover and incubate at room temperature for 1 hour on an orbital shaker.9. Remove the plate cover and empty wells. Wash the strip wells 3 times according to step 6 above.10. Add 100 μL of the diluted HRP-conjugated secondary antibody to each well.11. Cover with the plate cover and incubate at room temperature for 1 hour on an orbital shaker.12. Remove the plate cover and empty wells. Wash microwell strips 3 times according to step 6 above. Proceed immediately to the next step.13. Warm Substrate Solution to room temperature. Add 100 μL of Substrate Solution to each well, including the blank wells. Incubate at room temperature for 5-20 minutes on an orbital shaker.14. Stop the enzyme reaction by adding 100 μL of Stop Solution into each well, including the blank wells. Results should be read immediately (color will fade over time).15. Read absorbance of each microwell on a spectrophotometer using 450 nm as the primary wave length.
A general note: In an ELISA, binding on a coated surface is turned into a signal by an enzyme label.
On to `CN(C)CCN(Cc1ccc(F)cc1)C(=O)Nc1ccc2cnccc2c1` [US10696638, Table 1.2], for which the IC50 (in general, the concentration at which inhibition is half-maximal) was over 1000 nM.
The compound `O=C(Nc1ccc2cnccc2c1)N[C@@H](CO)c1ccccc1` [US10696638, Table 1.6] yielded an IC50 of over 1000 nM.
The figure for `O=C(Nc1cccc2cnccc12)N[C@@H](CO)c1ccccc1` [US10696638, formula (I) 4] is over 1000 nM; for `CN(C)CCN(Cc1ccc(F)cc1)C(=O)Nc1cccc2cnccc12` [US10696638, formula (I) 5] it is over 1000 nM; for `O=C(Nc1cccc2cnccc12)N(Cc1ccc(Cl)cc1)C1CCNCC1` [US10696638, formula (I) 9] it is over 1000 nM.
